Test results: patent publication US9265739B2, “Methods and use of compounds that bind to HER2/neu receptor complex” (The Trustees Of The University Of Pennsylvania, priority 2010, dated 2016)

Key:
T6-17 cells [1] = assay: MTT cell proliferation assay, T6-17 cells; assay type: cell-based, murine; conditions: indicated doses, three days, FIG. 3
Description: (§1) The activity of S22-57 in cell proliferation assays using different cell lines was examined. T6-17 is a murine cell line engineered to express human HER2/neu. […] HBL100 is an immortalized human breast cancer cell line. XHT-1-1A are mouse NIH3T3 cells transformed by Harvey-RAS (XHT-1-1a) previously developed and used (Drebin, et al., Cell 41, 697-706 (1985)). Both HBL100 and XHT-1-1A are used as controls. To measure cell proliferation, we used the modified 3-[4,5-dimethylthiazol-2-yl]-2,5-diphenyl tetrazolium bromide (MTT) assay as previously described (Masuda, et al., Oncogene 25, 7740-7746 (2006)). Cells (2000-5000 cells/well) were seeded in 96-well plates in the presence of inhibitors with different concentration and incubated at 37° C. in a humidified 5% CO2 atmosphere. After 72 h, cells were incubated in fresh medium for another 4 hours before a total of 25 μl of MTT solution (5 mg/ml in PBS) was added to each well, and after 2 h of incubation at 37° C., 100 μl of the extraction buffer (20% w/v SDS, 50% N,N-dimethyl formamide, pH 4.7) was added. After an overnight incubation at 37° C., the optical density at 570 nm was measured using a Tecan ELISA reader. […] Proliferation of cells was measured by the MTT assay.

[2] = tested on: HER2 (phosphorylation at Y877); assay: Inhibition of HER2 phosphorylation in HC1 cells (western blot); assay type: cell-based, human; conditions: serum-starved HC1 cells, inhibitor 1 hour, EGF 50 ng/ml 10 minutes, FIG. 4
Experimental: The effect of S22-57 was also examined in the cetuximab-resistant non-small cell lung cancer cell line HC1. Confluent HC1 cells were first serum starved for 24 hours before exposed to inhibitors as indicated for 1 hour. Cells were then stimulated by EGF (50 ng/ml) for 10 minutes. […] Both antibodies were purchased from Cell Signaling.

HC1 cells = assay: MTT cell proliferation assay, HC1 cells; assay type: cell-based, human; conditions: indicated doses, three days, FIG. 3
Description: as §1

SK-BR-3 cells = assay: Soft agar colony growth screening, SK-BR-3 cells; assay type: cell-based; conditions: soft agar colonies counted on day 21, relative to DMSO control, p<0.05, FIG. 1/2
Experimental: (§2) Targeted molecules were screened in vitro for anti-tumor activity using a modified […] growth of transformed cell assay, as described in Fukazawa et al. (1995), Anal. Biochem., 10:83-90. Anchorage-independent growth capability is perhaps the best indicator of the malignant phenotype and is determined by efficiency of cells to form colonies in soft agar (Drebin, et al., Cell 41, 697-706 (1985)). All experiments were conducted in 6 cm dishes in triplicate. Agar bottom layers consisted of 3 ml 0.25% agarose/DMEM (Dulbecco's Modified Eagle Medium) supplemented with 10% FBS (Fetal Bovine Serum), 2 mM L-glutamine, and 100 u/ml Penicillin/1 μg/ml Streptomycin. About 1000-2000 cells T6-17/SK-BR-3 are layered on the top in 1 ml 0.18% agarose/DMEM, 10% FBS, 2 mM L-glutamine, and 100 μ/ml Penicillin/1 μg/ml Streptomycin. Cultures were treated every 3 days with 0.5 ml of supplemented DMEM containing measured amounts of the Her2 inhibitors, or DMSO (dimethyl sulfoxide) alone. On the day before the colonies were counted, the samples were incubated with 1 ml of Hank's Balanced Salt Solution containing 1 mg/ml p-iodonitrotetrazolium violet (INT, Sigma) to stain colonies. The next day, colonies were counted using a 7× achromatic magnifying eyepiece (Bausch and Lomb). Triplicate cultures were counted on day 21 and will be verified by at least two different persons. […]

T6-17 cells [3] = assay: Soft agar colony growth screening, T6-17 cells; assay type: cell-based, murine; conditions: soft agar colonies counted on day 21, relative to DMSO control, p<0.05, FIG. 1/2
Experimental: as §2

For `O=C(CCc1cc(C(F)(F)F)cc(C(F)(F)F)c1)NN/C=C1\C=C(Cl)C=C(Cl)C1=O` [S22-57], the “inhibition of proliferation of T6-17 cells” value (T6-17 cells [1]) was “inhibited T6-17 and HC1 dose-dependently”, the “EGF-stimulated phosphorylation of HER2 at Y877” value [2] was “inhibited” and the “inhibition of proliferation of HC1 cells” value (HC1 cells) was “inhibited T6-17 and HC1 dose-dependently”. The “effect on SK-BR-3 cell proliferation (colony growth in culture)” value (SK-BR-3 cells) was “reduced cellular growth in culture relative to DMSO control” and the “effect on T6-17 cell proliferation (colony growth in culture)” value (T6-17 cells [3]) was “reduced cellular growth in culture relative to DMSO control”.
